Columns and labels:
barnyard grass [1] = assay: Test Example 3: herbicidal effect by foliage application, Wagner pot (Table 18, symbol H); format: in vivo, barnyard grass (Echinochloa crus-galli); details: for herbicidal effect on H: barnyard grass: amount of applied herbicide 320 g/ha
Description: (§1) [Test Example 3] Herbicidal Effect Test by Foliage Application After alluvial soil was placed into 1/10000 are of Wagner pot, water was poured and mixed to form a submerged condition having a water depth of 0.1 cm to 0.5 cm. Seeds of barnyard grass, Chinese sprangletop, rice flat sedge, and rice were sowed and the pot was placed in a greenhouse at 25° C. to 30° C. for growth of the plants. After 14-day growth of the plants, the emulsion agent of the compound of the present invention prepared according to Formulation Example 2 was diluted with water so as to achieve a predetermined herbicide amount, and the diluted emulsion agent was uniformly applied to a foliage part with a small-sized spray. Three weeks after the herbicide application, the effect of the herbicide on each plant was evaluated according to the criteria of Test Example 1.

Chinese sprangletop = assay: Test Example 3: herbicidal effect by foliage application, Wagner pot (Table 18, symbol D); format: in vivo, chinese sprangletop (Leptochloa chinensis); details: for herbicidal effect on D: Chinese sprangletop: amount of applied herbicide 320 g/ha
Description: as §1

rice flat sedge = assay: Test Example 3: herbicidal effect by foliage application, Wagner pot (Table 18, symbol E); format: in vivo, rice flat sedge (Cyperus iria); details: for herbicidal effect on E: rice flat sedge: amount of applied herbicide 320 g/ha
Description: as §1

southern crabgrass = assay: Test Example 5: herbicidal effect by foliage application, plastic box (Table 20, symbol F); format: in vivo, southern crabgrass (Digitaria ciliaris); details: foliage application, 320 g/ha; for effect on southern crabgrass (F): 3 weeks after application
Excerpt: (§2) [Test Example 5] Herbicidal Effect Test by Foliage Application
(§3) Sterilized diluvial soil was placed in a plastic box having a length of 21 cm, a width of 13 cm, and a depth of 7 cm. The seeds of each of southern crabgrass, green foxtail, barnyard grass, wild oat, blackgrass, Italian ryegrass, windgrass, velvetleaf, redroot pigweed, lambsquarters, chickweed, false cleavers, persian speedwell, corn, soybean, rice, wheat, beet, and rapeseed were sowed in a spot-like manner and covered with the soil having a thickness of about 1.5 cm. Thereafter, the plants were grown in a greenhouse at 25° C. to 30° C. After 14-day growth of the plants, the emulsion agent of the compound of the present invention prepared according to Formulation Example 2 was diluted with water so as to achieve a predetermined herbicide amount, and the diluted emulsion agent was uniformly applied to a foliage part with a small-sized spray. Three weeks after the herbicide application, the effect of the herbicide on each plant was evaluated according to the criteria of Test Example 1.

green foxtail = assay: Test Example 5: herbicidal effect by foliage application, plastic box (Table 20, symbol G); format: in vivo, green foxtail (Setaria viridis); details: foliage application, 320 g/ha; for effect on green foxtail (G): 3 weeks after application
Excerpt: as §2, §3

barnyard grass [2] = assay: Test Example 5: herbicidal effect by foliage application, plastic box (Table 20, symbol H); format: in vivo, barnyard grass (Echinochloa crus-galli); details: foliage application, 320 g/ha; for effect on barnyard grass (H): 3 weeks after application
Excerpt: as §2, §3

wild oat = assay: Test Example 5: herbicidal effect by foliage application, plastic box (Table 20, symbol I); format: in vivo, wild oat (Avena fatua); details: foliage application, 320 g/ha; for effect on wild oat (I): 3 weeks after application
Excerpt: as §2, §3

blackgrass = assay: Test Example 5: herbicidal effect by foliage application, plastic box (Table 20, symbol J); format: in vivo, blackgrass (Alopecurus myosuroides); details: foliage application, 320 g/ha; for effect on blackgrass (J): 3 weeks after application
Excerpt: as §2, §3

Italian ryegrass = assay: Test Example 5: herbicidal effect by foliage application, plastic box (Table 20, symbol K); format: in vivo, Italian ryegrass (Lolium multiflorum); details: foliage application, 320 g/ha; for effect on Italian ryegrass (K): 3 weeks after application
Excerpt: as §2, §3

windgrass = assay: Test Example 5: herbicidal effect by foliage application, plastic box (Table 20, symbol L); format: in vivo, windgrass (Apera spica-venti); details: foliage application, 320 g/ha; for effect on windgrass (L): 3 weeks after application
Excerpt: as §2, §3

velvetleaf = assay: Test Example 5: herbicidal effect by foliage application, plastic box (Table 20, symbol M); format: in vivo, velvetleaf (Abutilon theophrasti); details: foliage application, 320 g/ha; for effect on velvetleaf (M): 3 weeks after application
Excerpt: as §2, §3

lambsquarters = assay: Test Example 5: herbicidal effect by foliage application, plastic box (Table 20, symbol O); format: in vivo, lambsquarters (Chenopodium album); details: foliage application, 320 g/ha; for effect on lambsquarters (O): 3 weeks after application
Excerpt: as §2, §3

persian speedwell = assay: Test Example 5: herbicidal effect by foliage application, plastic box (Table 20, symbol R); format: in vivo, Persian speedwell (Veronica persica); details: foliage application, 320 g/ha; for effect on persian speedwell (R): 3 weeks after application
Excerpt: as §2, §3

## C#CCOc1c(C)nn(C)c(=O)c1-c1c(-c2ccc(F)cc2)sc2ccc(F)cc12 [2-006]
Barnyard grass [1]; 320 g/ha
  herbicidal effect on H (barnyard grass), rating 0-5: 2 (Herbicidal rate of 20% or more and less than 40%)
Chinese sprangletop; 320 g/ha
  herbicidal effect on D (Chinese sprangletop), rating 0-5: 0 (Herbicidal rate of 5% or less (almost no effect))
Rice flat sedge; 320 g/ha
  herbicidal effect on E (rice flat sedge), rating 0-5: 0 (Herbicidal rate of 5% or less (almost no effect))
Southern crabgrass
  effect on southern crabgrass (F): 0 (Herbicidal rate of 5% or less (almost no effect))
Green foxtail
  effect on green foxtail (G): 0 (Herbicidal rate of 5% or less (almost no effect))
Barnyard grass [2]
  effect on barnyard grass (H): 0 (Herbicidal rate of 5% or less (almost no effect))
Wild oat
  effect on wild oat (I): 0 (Herbicidal rate of 5% or less (almost no effect))
blackgrass
  effect on blackgrass (J): 0 (Herbicidal rate of 5% or less (almost no effect))
Italian ryegrass
  effect on Italian ryegrass (K): 0 (Herbicidal rate of 5% or less (almost no effect))
windgrass
  effect on windgrass (L): 0 (Herbicidal rate of 5% or less (almost no effect))
velvetleaf
  effect on velvetleaf (M): 0 (Herbicidal rate of 5% or less (almost no effect))
lambsquarters
  effect on lambsquarters (O): 0 (Herbicidal rate of 5% or less (almost no effect))
Persian speedwell
  effect on persian speedwell (R): 2 (Herbicidal rate of 20% or more and less than 40%)

## COc1ccccc1-c1oc2ccc(Cl)cc2c1-c1c(O)c(C)nn(C)c1=O [9-001]
Southern crabgrass; three weeks after application
  herbicidal effect on southern crabgrass (F): 0 (Herbicidal rate of 5% or less (almost no effect))
Green foxtail; three weeks after application
  herbicidal effect on green foxtail (G): 0 (Herbicidal rate of 5% or less (almost no effect))
Barnyard grass [2]; three weeks after application
  herbicidal effect on barnyard grass (H): 0 (Herbicidal rate of 5% or less (almost no effect))
Wild oat; three weeks after application
  herbicidal effect on wild oat (I): 0 (Herbicidal rate of 5% or less (almost no effect))
blackgrass; three weeks after application
  herbicidal effect on blackgrass (J): 0 (Herbicidal rate of 5% or less (almost no effect))
Italian ryegrass; three weeks after application
  herbicidal effect on Italian ryegrass (K): 0 (Herbicidal rate of 5% or less (almost no effect))
windgrass; three weeks after application
  herbicidal effect on windgrass (L): 0 (Herbicidal rate of 5% or less (almost no effect))
velvetleaf; three weeks after application
  herbicidal effect on velvetleaf (M): 2 (Herbicidal rate of 20% or more and less than 40%)
lambsquarters; three weeks after application
  herbicidal effect on lambsquarters (O): 3 (Herbicidal rate of 40% or more and less than 70%)
Persian speedwell; three weeks after application
  herbicidal effect on persian speedwell (R): 0 (Herbicidal rate of 5% or less (almost no effect))

## Cc1nn(C)c(=O)c(-c2c(-c3ccc(CO)cc3)sc3ccccc23)c1O [1-238]
Barnyard grass [1]; 320 g/ha
  herbicidal effect on H (barnyard grass), rating 0-5: 4 (Herbicidal rate of 70% or more and less than 90%)
Chinese sprangletop; 320 g/ha
  herbicidal effect on D (Chinese sprangletop), rating 0-5: 4 (Herbicidal rate of 70% or more and less than 90%)
Rice flat sedge; 320 g/ha
  herbicidal effect on E (rice flat sedge), rating 0-5: 4 (Herbicidal rate of 70% or more and less than 90%)
Southern crabgrass
  effect on southern crabgrass (F): 3 (Herbicidal rate of 40% or more and less than 70%)
Green foxtail
  effect on green foxtail (G): 4 (Herbicidal rate of 70% or more and less than 90%)
Barnyard grass [2]
  effect on barnyard grass (H): 3 (Herbicidal rate of 40% or more and less than 70%)
Wild oat
  effect on wild oat (I): 0 (Herbicidal rate of 5% or less (almost no effect))
blackgrass
  effect on blackgrass (J): 0 (Herbicidal rate of 5% or less (almost no effect))
Italian ryegrass
  effect on Italian ryegrass (K): 3 (Herbicidal rate of 40% or more and less than 70%)
windgrass
  effect on windgrass (L): 0 (Herbicidal rate of 5% or less (almost no effect))
velvetleaf
  effect on velvetleaf (M): 5 (Herbicidal rate of 90% or more (almost completely withered))
lambsquarters
  effect on lambsquarters (O): 4 (Herbicidal rate of 70% or more and less than 90%)
Persian speedwell
  effect on persian speedwell (R): 5 (Herbicidal rate of 90% or more (almost completely withered))

## Cc1nn(C)c(=O)c(-c2c(-c3cnc(Cl)s3)sc3ccc(F)cc23)c1O [2-394]
Barnyard grass [1]
  herbicidal effect on H: barnyard grass: 5 (Herbicidal rate of 90% or more (almost completely withered))
Chinese sprangletop
  herbicidal effect on D: Chinese sprangletop: 3 (Herbicidal rate of 40% or more and less than 70%)
Rice flat sedge
  herbicidal effect on E: rice flat sedge: 5 (Herbicidal rate of 90% or more (almost completely withered))

## CCCC(=O)Oc1c(C)nn(C)c(=O)c1-c1c(-c2ccccc2O)sc2c(Cl)cccc12 [4-080]
Barnyard grass [1]; 320 g/ha
  herbicidal effect on barnyard grass (H): 2 (Herbicidal rate of 20% or more and less than 40%)
Chinese sprangletop; 320 g/ha
  herbicidal effect on Chinese sprangletop (D): 3 (Herbicidal rate of 40% or more and less than 70%)
Rice flat sedge; 320 g/ha
  herbicidal effect on rice flat sedge (E): 4 (Herbicidal rate of 70% or more and less than 90%)

## Cc1nn(C)c(=O)c(-c2c(-c3ccc(OC(F)F)cc3)sc3c(Cl)cccc23)c1O [4-074]
Barnyard grass [1]; 320 g/ha
  herbicidal effect on barnyard grass (H): 4 (Herbicidal rate of 70% or more and less than 90%)
Chinese sprangletop; 320 g/ha
  herbicidal effect on Chinese sprangletop (D): 0 (Herbicidal rate of 5% or less (almost no effect))
Rice flat sedge; 320 g/ha
  herbicidal effect on rice flat sedge (E): 3 (Herbicidal rate of 40% or more and less than 70%)

## COc1c(C)nn(C)c(=O)c1-c1c(-c2ccnc(F)c2)sc2ccc(F)cc12 [2-427]
Barnyard grass [1]
  herbicidal effect on H: barnyard grass: 3 (Herbicidal rate of 40% or more and less than 70%)
Chinese sprangletop
  herbicidal effect on D: Chinese sprangletop: 0 (Herbicidal rate of 5% or less (almost no effect))
Rice flat sedge
  herbicidal effect on E: rice flat sedge: 2 (Herbicidal rate of 20% or more and less than 40%)

## CCCC(=O)Oc1c(C)nn(C)c(=O)c1-c1c(-c2ccc(C(F)(F)F)cc2)sc2cc(Cl)c(Cl)cc12 [5-048]
Barnyard grass [1]; 320 g/ha
  herbicidal effect on barnyard grass (H): 3 (Herbicidal rate of 40% or more and less than 70%)
Chinese sprangletop; 320 g/ha
  herbicidal effect on Chinese sprangletop (D): 4 (Herbicidal rate of 70% or more and less than 90%)
Rice flat sedge; 320 g/ha
  herbicidal effect on rice flat sedge (E): 0 (Herbicidal rate of 5% or less (almost no effect))

## CCCC(=O)Oc1c(OC)nn(C)c(=O)c1-c1c(-c2ccsc2)sc2ccccc12 [1-193]
Barnyard grass [1]; 80 g/ha
  herbicidal effect on H (barnyard grass), rating 0-5: 2 (Herbicidal rate of 20% or more and less than 40%)
Chinese sprangletop; 80 g/ha
  herbicidal effect on D (Chinese sprangletop), rating 0-5: 1 (Herbicidal rate of 5% or more and less than 20%)
Rice flat sedge; 80 g/ha
  herbicidal effect on E (rice flat sedge), rating 0-5: 0 (Herbicidal rate of 5% or less (almost no effect))

## COc1cc2sc(-c3ccc(C#N)cc3)c(-c3c(O)c(C)nn(C)c3=O)c2cc1Cl [5-074]
Barnyard grass [1]; 320 g/ha
  herbicidal effect on barnyard grass (H): 3 (Herbicidal rate of 40% or more and less than 70%)
Chinese sprangletop; 320 g/ha
  herbicidal effect on Chinese sprangletop (D): 5 (Herbicidal rate of 90% or more (almost completely withered))
Rice flat sedge; 320 g/ha
  herbicidal effect on rice flat sedge (E): 3 (Herbicidal rate of 40% or more and less than 70%)

## CCCC(=O)Oc1c(OC)nn(C)c(=O)c1-c1c(-c2ccc(Oc3ccccc3)cc2)sc2ccccc12 [1-165]
Barnyard grass [1]; 80 g/ha
  herbicidal effect on H (barnyard grass), rating 0-5: 2 (Herbicidal rate of 20% or more and less than 40%)
Chinese sprangletop; 80 g/ha
  herbicidal effect on D (Chinese sprangletop), rating 0-5: 0 (Herbicidal rate of 5% or less (almost no effect))
Rice flat sedge; 80 g/ha
  herbicidal effect on E (rice flat sedge), rating 0-5: 0 (Herbicidal rate of 5% or less (almost no effect))

## CCCC(=O)Oc1c(OC)nn(C)c(=O)c1-c1c(-c2cc3ccccc3o2)sc2ccccc12 [1-195]
Southern crabgrass
  effect on southern crabgrass (F): 0 (Herbicidal rate of 5% or less (almost no effect))
Green foxtail
  effect on green foxtail (G): 0 (Herbicidal rate of 5% or less (almost no effect))
Barnyard grass [2]
  effect on barnyard grass (H): 0 (Herbicidal rate of 5% or less (almost no effect))
Wild oat
  effect on wild oat (I): 0 (Herbicidal rate of 5% or less (almost no effect))
blackgrass
  effect on blackgrass (J): 0 (Herbicidal rate of 5% or less (almost no effect))
Italian ryegrass
  effect on Italian ryegrass (K): 0 (Herbicidal rate of 5% or less (almost no effect))
windgrass
  effect on windgrass (L): 0 (Herbicidal rate of 5% or less (almost no effect))
velvetleaf
  effect on velvetleaf (M): 0 (Herbicidal rate of 5% or less (almost no effect))
lambsquarters
  effect on lambsquarters (O): 0 (Herbicidal rate of 5% or less (almost no effect))
Persian speedwell
  effect on persian speedwell (R): 0 (Herbicidal rate of 5% or less (almost no effect))

## Cc1nn(C)c(=O)c(-c2c(-c3ccc(C(F)(F)F)cc3Cl)sc3ccc(F)cc23)c1O [2-356]
Barnyard grass [1]
  herbicidal effect on H: barnyard grass: 4 (Herbicidal rate of 70% or more and less than 90%)
Chinese sprangletop
  herbicidal effect on D: Chinese sprangletop: 4 (Herbicidal rate of 70% or more and less than 90%)
Rice flat sedge
  herbicidal effect on E: rice flat sedge: 4 (Herbicidal rate of 70% or more and less than 90%)

From patent US20230085307A1, “PYRIDAZINONE COMPOUND AND HERBICIDE” (NISSAN CHEMICAL CORPORATION, priority 2019, published 2023)
